Test results published in US20260216157A1, “TETRAHYDROTHIOPHENE DERIVATIVE AND USE THEREOF IN MEDICINE” (Haisco Pharmaceutical Group Co., Ltd., priority 2023, published 2026).

Key:
[1] = Pharmacokinetic test in mice; type: in vivo; details: C57, mouse, PO 30 mg/kg, plasma
Description: Biological Test Example 3: Pharmacokinetic Test in Mice
Experimental animals: C57 mice, 22-25 g, 6 mice/compound.
Experimental design: on the day of the experiment, C57 mice were randomly grouped according to their body weights. The animals were fasted with water available for 12-14 h one day before the administration, and were fed 4 h after the administration.
Before and after the administration, 0.06 mL of blood was taken from the orbit under isoflurane anesthesia, and placed in an EDTAK2 centrifuge tube. Centrifugation was performed at 5000 rpm at 4° C. for 10 min, and the plasma was collected. The blood collection time points for both the intravenous administration group and the intragastric administration group were: 0, 5 min, 15 min, 30 min, 1 h, 2 h, 4 h, 7 h, 24 h and 48 h. Before analysis and detection, all samples were stored at −80° C. The samples were quantitatively analyzed by LC-MS/MS.

CYP1A2 = molecular target: T1, CYP1A2 (Homo sapiens, UniProt P05177); experiment: CYP450 enzyme inhibition test (human liver microsomes); type: in vitro ADME; details: read-out: IC50 against CYP1A2
T1 construct: co-incubated with human liver microsomes and test compounds; from tissue; host or cells: human liver microsomes
T1 sequence (P05177 1-516): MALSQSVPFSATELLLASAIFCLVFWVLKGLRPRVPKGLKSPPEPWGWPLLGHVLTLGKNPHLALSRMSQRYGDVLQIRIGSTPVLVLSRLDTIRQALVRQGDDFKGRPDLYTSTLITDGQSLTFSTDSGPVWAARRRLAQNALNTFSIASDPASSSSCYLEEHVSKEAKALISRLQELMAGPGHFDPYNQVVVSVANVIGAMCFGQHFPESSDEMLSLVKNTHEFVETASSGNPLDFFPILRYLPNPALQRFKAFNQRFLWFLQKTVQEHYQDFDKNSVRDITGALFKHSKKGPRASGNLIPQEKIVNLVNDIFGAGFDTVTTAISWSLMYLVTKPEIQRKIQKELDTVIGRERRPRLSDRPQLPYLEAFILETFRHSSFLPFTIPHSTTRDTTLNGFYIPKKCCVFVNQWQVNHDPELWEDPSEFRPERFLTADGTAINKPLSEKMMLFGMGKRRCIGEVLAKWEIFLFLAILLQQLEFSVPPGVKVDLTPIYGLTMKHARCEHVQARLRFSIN
Description: (§1) Biological Test Example 6: CYP450 Enzyme Inhibition Test The purpose of this study was to evaluate the effect of test compounds on the activity of five isoenzymes (CYP1A2, CYP2C9, CYP2C19, CYP2D6, and CYP3A4) of human liver microsomal cytochrome P450 (CYP) by using an in vitro testing system. The specific probe substrates of CYP450 isoenzymes were co-incubated with human liver microsomes and test compounds at different concentrations, and the reaction was initiated by adding reduced nicotinamide adenine dinucleotide phosphate (NADPH). After the completion of the reaction, the samples were treated and subjected to the liquid chromatography-tandem mass spectrometry (LC-MS/MS) to quantitatively detect metabolites produced by the specific substrates. The changes in CYP enzyme activity were determined, and IC50 values were calculated to evaluate the inhibitory potential of the test compounds on each CYP enzyme subtype.

CYP2C19 = molecular target: T2, CYP2C19 (Homo sapiens, UniProt P33261); experiment: as above; type: in vitro ADME; details: read-out: IC50 against CYP2C19
T2 construct: co-incubated with human liver microsomes and test compounds; from tissue; host or cells: human liver microsomes
Description: as §1

CYP2C9 = molecular target: T3, CYP2C9 (Homo sapiens, UniProt P11712); experiment: as above; type: in vitro ADME; details: read-out: IC50 against CYP2C9
T3 construct: co-incubated with human liver microsomes and test compounds; from tissue; host or cells: human liver microsomes
Description: as §1

CYP2D6 = molecular target: T4, CYP2D6 (Homo sapiens, UniProt P10635); experiment: as above; type: in vitro ADME; details: read-out: IC50 against CYP2D6
T4 construct: co-incubated with human liver microsomes and test compounds; from tissue; host or cells: human liver microsomes
Description: as §1

CYP3A4 = molecular target: T5, CYP3A4 (Homo sapiens, UniProt P08684); experiment: as above; type: in vitro ADME; details: read-out: IC50 against CYP3A4
T5 construct: co-incubated with human liver microsomes and test compounds; from tissue; host or cells: human liver microsomes
Description: as §1

hNav1.8 = molecular target: T6, hNav1.8 (Homo sapiens, UniProt Q9Y5Y9); experiment: Nav1.8 manual patch clamp test; type: cell-based; details: CHO cells stably expressing human Nav1.8; whole-cell patch clamp, half-inactivated state; read-out: Inhibitory activity (IC50) against hNav1.8
T6 construct: expressed in transfected cells; host or cells: CHO
Description: Nav1.8 Manual Patch Clamp Test
CHO cell lines stably expressing human Nav1.8 were cultured in a Ham's F-12 medium containing 10% fetal bovine serum, 10 μg/mL Blasticidin, 200 μg/mL Hygromycin B and 100 μg/mL Zeocin. The cells were cultured at 37° C. with a carbon dioxide concentration of 5%. The old medium was removed, and the cells were rinsed once with PBS. Then, 1 mL of 0.25%-Trypsin-EDTA solution was added, and the cells were incubated at 37° C. for approximately 1.5 min. Once the cells detached from the bottom of the dish, complete medium pre-warmed to 37° C. was added. The cell suspension was gently triturated with a pipette to dissociate the clumped cells. The cell suspension was transferred to a sterile centrifuge tube and centrifuged at 1000 rpm for 5 min to collect the cells. The cells were seeded into 6 cm cell culture dishes at a density of 2.5×10^5 cells per cell culture dish (final volume: 5 mL) for expansion or maintenance culture. To maintain the electrophysiological activity of the cells, the cell density should not exceed 80%. Before patch clamp testing, the cells were dissociated with 0.25%-Trypsin-EDTA. 6.5×10^3 cells were plated onto coverslips and cultured in 24-well plates (final volume: […]) for 18 hours before detection.
The compound was dissolved in dimethyl sulfoxide (DMSO) and prepared into a 30 mM DMSO stock solution. The stock solution was diluted with the extracellular fluid (140 mM NaCl, 3.5 mM KCl, 1 mM MgCl2·6H2O, 2 mM CaCl2·2H2O, 10 mM D-Glucose, 10 mM HEPES and 1.25 mM NaH2PO4·2H2O; adjusted to pH 7.4 with NaOH) to the test concentration, and the final DMSO concentration of all test samples was 0.1%.
(3) Electrophysiological Test
First, the recording electrodes were pulled from capillary glass tubes by using a microelectrode puller. Then, the electrodes were filled with the intracellular fluid (50 mM CsCl, 10 mM NaCl, 10 mM HEPES, 60 mM CsF and 20 mM EGTA; adjusted to pH 7.2 with CsOH) and mounted onto the microelectrode holder. Under an inverted microscope, the microelectrode manipulator was used to immerse the electrodes into the extracellular fluid, and the pipette resistance (Rpip) was recorded. The electrodes were slowly brought into contact with the cell surface, and negative pressure suction was applied to form a […]. At this point, fast capacitance compensation was performed, and negative pressure was continuously applied to break the cell membrane, forming a whole-cell recording mode. Finally, slow capacitance compensation was performed, and experimental parameters such as series resistance (Rs) were recorded. No electric leakage compensation was applied. When the Nav1.8 current in whole-cell recording was stable, drug administration was initiated, with each drug concentration for approximately 5 min (or until the current was stable). The coverslips spread with the cells were placed in a recording chamber under the inverted microscope. The blank control extracellular fluid and the test compound working solution were perfused through the recording chamber via the gravity-driven perfusion method, thereby acting on the cells, and a peristaltic pump was used to facilitate liquid exchange. The current recorded from cells in compound-free extracellular fluid was used as the control group. All electrophysiological experiments were conducted at room temperature. The inhibition rate of compounds on Nav1.8 was determined by calculating the relative percentage of peak currents generated before and after the cells were treated with the compounds.
The voltage stimulation protocol for whole-cell patch clamp recording of Nav1.8 sodium currents was described as follows. When the whole-cell sealing was formed, the cells were clamped at a voltage of −120 mV. First, the voltage was stepped from −110 mV to −30 mV in 10 mV increments and maintained for 5 s, followed by a depolarizing pulse to 0 mV to obtain a half-inactivation voltage (Vhalf). […]

[2] = system: Spinal nerve ligation (SNL)-induced mouse model of neuropathic pain; experiment: Spinal nerve ligation (SNL)-induced mouse model of neuropathic pain; type: in vivo, C57BL/6J mice; details: SNL mice, mechanical pain threshold
Description: Biological Test Example 8: Spinal Nerve Ligation (SNL)-Induced Mouse Model of Neuropathic Pain
Male C57BL/6J mice purchased from Zhejiang Vital River Laboratory Animal Technology Co., Ltd. were adaptively raised for one week and then the models were established. […]
The mice that were unsuccessful in modeling were eliminated the next day after modeling (marker for successful modeling: mice with their hind paws curled up). […] After grouping, the test compounds (3 and 30 mg/kg) or vehicles (0.5% methylcellulose) were administered intragastrically, and the mechanical pain threshold (MPT) of the mice was measured at different time points after the administration. […]

T6 sequence (Q9Y5Y9 whole entry): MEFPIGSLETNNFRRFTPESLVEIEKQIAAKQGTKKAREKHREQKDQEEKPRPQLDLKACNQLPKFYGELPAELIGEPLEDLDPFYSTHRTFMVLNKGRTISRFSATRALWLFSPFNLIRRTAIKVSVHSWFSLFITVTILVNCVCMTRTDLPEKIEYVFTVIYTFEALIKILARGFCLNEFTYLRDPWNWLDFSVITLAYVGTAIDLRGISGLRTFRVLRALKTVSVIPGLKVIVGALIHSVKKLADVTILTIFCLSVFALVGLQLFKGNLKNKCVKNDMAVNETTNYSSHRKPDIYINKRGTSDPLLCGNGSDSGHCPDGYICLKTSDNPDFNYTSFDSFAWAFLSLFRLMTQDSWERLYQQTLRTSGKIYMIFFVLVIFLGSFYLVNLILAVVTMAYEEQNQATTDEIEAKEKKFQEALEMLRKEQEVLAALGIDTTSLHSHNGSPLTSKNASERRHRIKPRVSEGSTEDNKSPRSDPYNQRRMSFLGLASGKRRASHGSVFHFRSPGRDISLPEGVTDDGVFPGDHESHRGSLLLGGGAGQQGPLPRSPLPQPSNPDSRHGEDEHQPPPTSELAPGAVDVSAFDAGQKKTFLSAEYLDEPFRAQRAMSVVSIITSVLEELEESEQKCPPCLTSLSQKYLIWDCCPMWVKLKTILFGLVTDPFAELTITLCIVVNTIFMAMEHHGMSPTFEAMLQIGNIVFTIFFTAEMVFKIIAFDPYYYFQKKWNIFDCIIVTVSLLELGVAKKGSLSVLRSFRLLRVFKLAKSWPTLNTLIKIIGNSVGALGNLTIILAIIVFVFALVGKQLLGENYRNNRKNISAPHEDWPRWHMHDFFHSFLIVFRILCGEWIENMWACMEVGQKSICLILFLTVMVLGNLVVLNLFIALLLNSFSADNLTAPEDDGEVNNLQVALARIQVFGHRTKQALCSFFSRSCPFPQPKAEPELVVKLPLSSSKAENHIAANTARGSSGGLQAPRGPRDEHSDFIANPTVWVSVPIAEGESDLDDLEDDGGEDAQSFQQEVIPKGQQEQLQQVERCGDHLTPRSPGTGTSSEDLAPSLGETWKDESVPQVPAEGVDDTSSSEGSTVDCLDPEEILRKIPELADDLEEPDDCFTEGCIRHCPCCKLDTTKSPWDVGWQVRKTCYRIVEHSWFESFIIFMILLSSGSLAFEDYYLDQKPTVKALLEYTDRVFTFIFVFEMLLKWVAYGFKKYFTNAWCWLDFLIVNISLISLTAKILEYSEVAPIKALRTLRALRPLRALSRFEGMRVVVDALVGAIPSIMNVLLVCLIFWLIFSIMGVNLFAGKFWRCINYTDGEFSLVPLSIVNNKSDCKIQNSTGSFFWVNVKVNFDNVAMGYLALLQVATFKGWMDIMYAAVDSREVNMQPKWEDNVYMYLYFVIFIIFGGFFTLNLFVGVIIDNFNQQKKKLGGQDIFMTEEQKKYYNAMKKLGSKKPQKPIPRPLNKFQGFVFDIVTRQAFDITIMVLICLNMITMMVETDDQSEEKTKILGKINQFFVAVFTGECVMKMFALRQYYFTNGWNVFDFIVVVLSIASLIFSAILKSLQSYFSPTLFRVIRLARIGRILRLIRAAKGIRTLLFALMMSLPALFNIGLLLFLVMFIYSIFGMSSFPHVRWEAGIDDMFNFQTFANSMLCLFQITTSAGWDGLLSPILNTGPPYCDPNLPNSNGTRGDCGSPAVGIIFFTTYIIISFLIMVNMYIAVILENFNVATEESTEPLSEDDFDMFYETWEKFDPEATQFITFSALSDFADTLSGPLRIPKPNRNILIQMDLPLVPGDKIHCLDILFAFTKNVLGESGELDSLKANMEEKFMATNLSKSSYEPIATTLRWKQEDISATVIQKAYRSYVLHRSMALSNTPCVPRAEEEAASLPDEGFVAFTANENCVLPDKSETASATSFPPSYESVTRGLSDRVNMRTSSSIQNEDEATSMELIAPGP
T5 sequence (P08684 whole entry): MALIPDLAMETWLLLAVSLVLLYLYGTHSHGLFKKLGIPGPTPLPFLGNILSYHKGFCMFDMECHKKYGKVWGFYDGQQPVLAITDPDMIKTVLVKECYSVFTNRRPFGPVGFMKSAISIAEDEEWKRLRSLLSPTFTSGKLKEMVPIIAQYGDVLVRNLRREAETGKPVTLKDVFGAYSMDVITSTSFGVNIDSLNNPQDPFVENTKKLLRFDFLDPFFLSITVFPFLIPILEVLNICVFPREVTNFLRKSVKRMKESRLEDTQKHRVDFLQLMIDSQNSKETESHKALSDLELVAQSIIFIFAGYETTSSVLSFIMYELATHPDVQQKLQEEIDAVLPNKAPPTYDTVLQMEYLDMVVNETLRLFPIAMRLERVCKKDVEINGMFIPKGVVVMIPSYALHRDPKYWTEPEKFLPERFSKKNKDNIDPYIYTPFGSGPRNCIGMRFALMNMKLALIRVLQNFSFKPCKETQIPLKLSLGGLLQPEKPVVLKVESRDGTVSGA
T3 sequence (P11712 whole entry): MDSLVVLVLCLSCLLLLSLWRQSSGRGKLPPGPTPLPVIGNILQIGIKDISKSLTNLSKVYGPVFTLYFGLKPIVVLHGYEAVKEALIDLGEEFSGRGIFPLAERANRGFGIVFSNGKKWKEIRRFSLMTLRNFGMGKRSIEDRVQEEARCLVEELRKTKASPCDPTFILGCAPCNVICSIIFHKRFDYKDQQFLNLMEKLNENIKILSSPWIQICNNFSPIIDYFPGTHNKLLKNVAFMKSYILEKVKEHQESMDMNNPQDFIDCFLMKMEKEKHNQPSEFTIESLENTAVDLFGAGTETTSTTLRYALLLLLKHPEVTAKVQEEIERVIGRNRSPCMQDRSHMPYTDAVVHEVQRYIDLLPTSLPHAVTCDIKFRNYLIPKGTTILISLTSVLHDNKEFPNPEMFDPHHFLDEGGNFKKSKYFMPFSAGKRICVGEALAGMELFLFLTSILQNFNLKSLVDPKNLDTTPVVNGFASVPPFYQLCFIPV
T4 sequence (P10635 whole entry): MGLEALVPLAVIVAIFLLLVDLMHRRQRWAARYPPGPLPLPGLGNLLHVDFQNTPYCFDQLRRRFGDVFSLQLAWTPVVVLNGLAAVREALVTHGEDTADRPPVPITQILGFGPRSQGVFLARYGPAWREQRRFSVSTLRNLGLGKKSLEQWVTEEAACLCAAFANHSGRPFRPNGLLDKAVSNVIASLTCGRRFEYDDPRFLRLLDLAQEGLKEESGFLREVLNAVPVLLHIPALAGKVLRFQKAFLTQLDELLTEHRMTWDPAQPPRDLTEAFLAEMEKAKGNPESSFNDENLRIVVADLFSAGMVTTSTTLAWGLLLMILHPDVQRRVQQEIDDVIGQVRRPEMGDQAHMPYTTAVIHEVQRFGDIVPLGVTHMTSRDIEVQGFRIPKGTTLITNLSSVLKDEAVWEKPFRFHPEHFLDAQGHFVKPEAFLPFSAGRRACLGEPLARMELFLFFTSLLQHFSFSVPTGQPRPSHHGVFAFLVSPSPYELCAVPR
T2 sequence (P33261 whole entry): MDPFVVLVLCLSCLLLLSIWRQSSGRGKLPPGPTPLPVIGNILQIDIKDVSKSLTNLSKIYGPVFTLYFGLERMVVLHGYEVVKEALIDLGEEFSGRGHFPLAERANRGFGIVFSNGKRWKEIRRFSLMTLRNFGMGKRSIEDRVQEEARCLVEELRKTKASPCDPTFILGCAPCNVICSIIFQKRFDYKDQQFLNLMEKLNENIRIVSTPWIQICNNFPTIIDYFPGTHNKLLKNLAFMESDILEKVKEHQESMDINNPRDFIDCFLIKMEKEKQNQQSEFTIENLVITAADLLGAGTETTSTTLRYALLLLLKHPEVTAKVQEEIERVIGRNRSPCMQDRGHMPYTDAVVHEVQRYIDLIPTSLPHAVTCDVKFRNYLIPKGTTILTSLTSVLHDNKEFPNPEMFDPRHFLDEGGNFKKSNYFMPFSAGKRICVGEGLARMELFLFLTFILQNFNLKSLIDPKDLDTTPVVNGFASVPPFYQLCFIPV

| AUC(0-t) [1] [ng·h/mL] | IC50 (CYP1A2) [µM] | IC50 (CYP2C19) [µM] | IC50 (CYP2C9) [µM] | IC50 (CYP2D6) [µM] | IC50 (CYP3A4) [µM] | IC50 (hNav1.8) [µM] | SMILES | analgesic efficacy (area under the time-MPT curve) ([2]; 3 mg/kg intragastric) | analgesic efficacy (area under the time-MPT curve) ([2]; 30 mg/kg intragastric) |
| --- | --- | --- | --- | --- | --- | --- | --- | --- | --- |
| 65100 ± 9200 | > 30 | > 30 | > 30 | > 30 | > 30 |  | COc1c([C@H]2[C@H](C(=O)Nc3ccnc(P(C)(C)=O)c3)S[C@@](C)(C(F)(F)F)[C@H]2C)ccc(F)c1F [Compound 58] |  |  |
|  |  |  |  |  |  | < 0.0001 | COc1c([C@H]2[C@H](C(=O)Nc3ccc(F)c(C(N)=O)c3)S[C@@](C)(C(F)(F)F)[C@H]2C)ccc(F)c1F [Compound 6-2a] | significant analgesic efficacy | significant analgesic efficacy |
| 61600 ± 9480 |  |  |  |  |  | < 0.0001 | COc1c(C2CC(C)(C(F)(F)F)SC2C(=O)Nc2ccnc(C(N)=O)c2)ccc(F)c1F (single isomer, unassigned) [Compound 31-1P1] |  |  |
